Measured values taken from PubChem BioAssay AID179 (DTP/NCI, 2004).
Values joined by “and” are separate entries in the source; they are usually repeats but may differ in a detail not shown here. Identical values can stand only once. Active and inactive are the calls of the source.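 The calls were made as follows: active = compounds giving half or more protection of infected cells from virus-caused growth loss, again on retest; inactive = the rest.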

Tested on: CEM cells HIV-1 protection, formazan growth assay
Test: NCI AIDS Antiviral Assay
Settings: for IC50: measured here: growth of uninfected CEM cells
Outline: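 Category rules: moderately active means at least 50% protection on retest, and confirmed active means 100% protection reproducibly. The underlying data came from a formazan growth assay in HIV-1-infected CEM cells.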

| Structure (SMILES) | outcome | EC50 [µM] | IC50 |
| --- | --- | --- | --- |
| CCOC(=O)c1nc2ccc(C(F)(F)F)cc2nc1Nc1ccc(Cl)c(Cl)c1 | inactive |  |  |
| O=C(CC(=O)C1CCOC1=O)C(=O)Nc1ccc(Cl)cc1 (stereo not drawn) | inactive |  |  |
| Cc1nc2c(Br)cc(Br)cc2c(=O)n1-c1ccccc1N |  | > 200 | 67.6 µM |
| O=C(O)Cc1cccc2c1OC(c1ccccc1)C(C(=O)c1ccccc1)C2=O (stereo not drawn) |  | > 200 | 75.9 µM |
| O=C(NC(=O)c1cc(-c2ccccc2)n[nH]1)c1ccccc1 |  | > 200 | 123 µM |
| O=[N+]([O-])C(=C1c2ccccc2-c2ccccc21)[N+](=O)[O-] |  | > 135 | 18.2 µM |
| CCc1c(Cc2ccccc2)n(COCCO[Si](C)(C)C(C)(C)C)c(=O)[nH]c1=O |  | > 34.7 | 12.6 µM |
| N#CC12C(=O)N3C(=NC(c4ccco4)NC3c3ccco3)C1(C#N)C(c1ccco1)NC1=C2CCCC1 (stereo not drawn) |  | > 200 | > 200 µM |
| O=C(N[C@H]1c2ccsc2/C(=N/O)[C@H]1O)C(F)(F)F |  | > 200 | > 200 µM |
| CSC(SC)=C1C(=O)N(c2ccccc2)N=C1C |  | > 200 | 37.2 µM |
| N#C/C(=C\N1C(=O)/C(=C/c2cccc([N+](=O)[O-])c2)SC1=S)c1nc2ccccc2s1 |  | > 200 | 29.5 µM |
| CC1=C2C3OC(=O)C(C)C3C(O)C[C@@]2(C)C(=O)CC1 (stereo partly drawn) | inactive |  |  |
| Cn1ccc(C(=O)NCCN(CCNC(=O)c2ccn(C)c(=O)c2O)CCNC(=O)c2ccn(C)c(=O)c2O)c(O)c1=O |  | > 200 | > 200 µM |
| CC1CC2C3CCC4=CC(=O)C=CC4(C)C3(F)C(O)CC2(C)C1(O)C(=O)COP(=O)(O)O (stereo not drawn) | inactive |  |  |
| CCCC(=O)OCC1OC2OC(C)(C)OC2C2OC(C)(C)OC12 (stereo not drawn) | inactive |  |  |
| CCN1CCN(c2nc3ccccc3c3c2CCOc2ccccc2-3)CC1 | inactive |  |  |
| Cc1nc(Nc2ccc(Cl)cc2)sc1C(=O)NNC(=O)C(=O)NN |  | > 19.5 | > 19.5 µM |

| Structure (SMILES) | outcome | EC50 [µM] | IC50 |
| --- | --- | --- | --- |
| Nc1ccn(C2OC(CO)C(F)C2F)c(=O)n1 (stereo not drawn) |  | > 501 | > 501 µM |
| Clc1ccc([S+](c2ccc(Cl)cc2)C(Cl)(Cl)C(Cl)(Cl)Cl)cc1 |  | > 52.5 | 7.24 µM |
| COC(=O)c1c(C)cccc1C1CN=NC12Cc1cccc(C)c1C2=O (stereo not drawn) |  | > 126 | 81.3 µM |
| CN(C)CC1CC(=O)C(CN(C)C)CC1=O (stereo not drawn) |  | > 832 | 2.51 µM |
| O=C1C2C3SC(c4c3ccc3ccccc43)C2C(=O)N1c1ccccc1 (stereo not drawn) |  | > 2.95 | > 2.95 µM |
| Cc1[nH]c(N)nc(=S)c1CCC(=O)O |  | > 200 | > 200 µM |
| Cc1ccccc1NP1(=O)OCCCN1Cc1ccc(Cl)c(Cl)c1 (stereo not drawn) | inactive |  |  |
| COC(=O)[C@H](Cc1ccccc1)NC(=O)N(CCNCCNC(=O)OC(C)(C)C)c1ccccc1 |  | > 200 | > 100 µM |
| c1ccc2c(c1)[nH]c1c[n+]3c(c[n+]12)[nH]c1ccccc13 |  | > 200 | > 200 µM |
| O=C1OC2(c3ccccc31)c1ccc(O)c(O)c1Oc1c2ccc(O)c1O |  | > 200 | 36.3 µM and 33.1 µM and 9.55 µM |
| O=c1cc(CO)[nH]cc1O | inactive |  |  |
| COc1cc2c3c(c1)ncn3C(=O)C(c1ccccc1)S2 (stereo not drawn) |  | > 200 | 87.1 µM |
| Cc1c(N)c(=O)oc2cc3occc(=O)c3cc12 |  | > 20.4 | 13.5 µM |
| CCC1(C)CC(=O)NC1=O (stereo not drawn) |  | > 37.2 | > 37.2 µM |
| COc1cc(CNc2nc3ccc(C(F)(F)F)cc3nc2-c2ccccc2)cc(OC)c1OC |  | > 11.2 | > 11.2 µM |
| O=C(NCc1ccc2ccc3cccnc3c2n1)c1ccc[n+](Cc2ccccc2)c1 |  | > 513 | 24.5 µM |
